Measured values from patent publication US11672814B2, “NGNA compositions and methods of use” (priority 2008, dated 2023).
Like-named read-outs stand apart in the source and are kept apart here.

Assays:
Feline Calicivirus (FCV) = experiment: Virucidal assay, Norovirus surrogate virus titrated on CRFK cells (CPE readout); type: cell-based; conditions: 10 minutes
HRV-16 = experiment: Virucidal assay, Rhinovirus titrated on Wi-38 cells (CPE readout); type: cell-based, Human Rhinovirus; conditions: 10 minutes
HSV-1, SC-16 = experiment: Virucidal assay, HSV-1 titrated on Vero cells (CPE readout); type: cell-based, Herpes Simplex Virus type 1; conditions: 10 minutes; for Sample titer: control virus titer 6.25
[1] = test system: Influenza B virus B/Malaysia/2506/2004; type: cell-based; conditions: 10 minutes, MDCK

With `O=C(CO)N[C@H]1[C@H]([C@H](O)[C@H](O)CO)O[C@](O)(C(=O)O)C[C@@H]1O` [NGNA, n-glycolylneuraminic acid] as the compound, how does the Virus reduction (Feline Calicivirus (FCV); NGNA 10 nM) read?
Its Virus reduction is 0.00%.

What about the Sample titer (Feline Calicivirus (FCV); NGNA 10 nM, control virus titer 5.50) of the same compound?
Its Sample titer is 5.50 log10 TCID50/ml.

And the Virus reduction (Feline Calicivirus (FCV); NGNA 10 μM)?
The Virus reduction was 0.00%.

And the Sample titer (Feline Calicivirus (FCV); NGNA 10 μM, control virus titer 5.50)?
The Sample titer was 5.50 log10 TCID50/ml.

And the Virus reduction (Feline Calicivirus (FCV); NGNA 10 mM)?
Its Virus reduction is 82.21%.

And the Sample titer (Feline Calicivirus (FCV); NGNA 10 mM, control virus titer 5.25)?
Its Sample titer is 4.50 log10 TCID50/ml.

And the Virus reduction (HRV-16; NGNA 10 nM)?
The Virus reduction was 90.00%.

And the Sample titer (HRV-16; NGNA 10 nM, control virus titer 4.50)?
The Sample titer was 3.50 log10 TCID50/ml.

And the Virus reduction (HRV-16; NGNA 10 μM)?
The Virus reduction was 90.00%.

And the Sample titer (HRV-16; NGNA 10 μM, control virus titer 4.50)?
The Sample titer was 3.50 log10 TCID50/ml.

And the Virus reduction (HRV-16; NGNA 10 mM)?
Its Virus reduction is 99.44%.

And the Sample titer (HRV-16; NGNA 10 mM, control virus titer 4.75)?
Its Sample titer is 2.50 log10 TCID50/ml.

What about the Virus reduction (HSV-1, SC-16; NGNA 10 nM) of the same compound?
Its Virus reduction is 0.00%.

What about the Sample titer (HSV-1, SC-16; NGNA 10 nM) of the same compound?
Its Sample titer is 7.00 log10 TCID50/ml.

What about the Virus reduction (HSV-1, SC-16; NGNA 10 μM) of the same compound?
The Virus reduction was 0.00%.

What about the Sample titer (HSV-1, SC-16; NGNA 10 μM) of the same compound?
Its Sample titer is 6.25 log10 TCID50/ml.

What about the Virus reduction (HSV-1, SC-16; NGNA 10 mM) of the same compound?
The Virus reduction was 99.98%.

What about the Sample titer (HSV-1, SC-16; NGNA 10 mM) of the same compound?
The Sample titer was 2.50 log10 TCID50/ml.

And the Virus reduction ([1]; NGNA 10 nM)?
Its Virus reduction is 0.00%.

And the Virus reduction ([1]; NGNA 10 μM)?
Its Virus reduction is 0.00%.

What about the Virus reduction ([1]; NGNA 10 mM) of the same compound?
The Virus reduction was 99.00%.
